Assay results: patent US20050192341A1, “Non-psychotropic cannabinoids for prevention of cognitive impairment” (priority 2002, published 2005)

How the values were obtained:
Sprague-Dawley male rats [1] = test: Four vessel occlusion (4 VO) in rats, neurological score; assay type: in vivo, rat
Source text: This model was used to test the ability of dexanabinol or related compounds to act as neuroprotectant when administered prior to surgery. The blood supply to the rat brain arrives via the two vertebral and two common carotid arteries. Transient occlusion of all four vessels results in global ischemia, as would occur during cardiac arrest in humans. Global ischemia results in neurological deficits, including short-term memory deficits, and a selective loss of neurons, including pyramidal cells, in the CA1 field of the hippocampus, similarly to the situation observed in MCI. The ability of compounds to reduce the neurological deficits and increase neuronal survival in this model is considered indicative of their potential in preventing brain damage related to cardiac arrest, and is also predictive for ischemic damages and MCI caused by surgery, for instance cardiac surgery performed or not under cardiopulmonary bypass. […] Transient ischemia causes irreversible injury to a few, specific populations of highly vulnerable neurons.
Sprague-Dawley male rats (180-400 g body weight, Anilab, Israel) were anesthetized using 4% halothane for induction and 1% halothane for maintenance, in a mixture of 70% N2O and 30% O2. Animals were submitted to four-vessel occlusion according to the procedure of Pulsinelli et al. (Pulsinelli W. A. et al., Stroke 10: 267, 1979) in a two-stage operation. On the first day the vertebral arteries were occluded. A midline skin incision was performed above the spinal cord behind the skull occipital bone. Muscles were separated and cut until the C1 vertebra was isolated. The alar foramina were located and the vertebral arteries were coagulated via the alar foramina. Muscles and skin were closed in two layers. On the same day, the common carotid arteries (CCA) were isolated through a central neck midline incision. A loose suture material was positioned around them and the skin was closed.
On the second day, the animals were lightly anesthetized using ether. The skin was opened and CCA were closed for 20 minutes with arterial clips. Animals were deprived of food, with free access to water, overnight between the two stages of the study. Loss of righting reflex was the principal criterion for assuring severe forebrain ischemia in the 4 VO model in the rat. Therefore, animals not showing this sign were not included in the study. […]
Animals were monitored for their general clinical appearance at predetermined time points: before vertebral occlusion; before and 5 hours after CCA occlusion; then 1, 2, and 3 days after CCA occlusion. Body weight was recorded at baseline and at each follow-up session.
The total neurological score was calculated by adding the results of all tests for each animal and the maximal score obtainable for normal animals is 16 points. […]

Sprague Dawley rats = test: Neuronal vacuolization and necrosis histopathology after single high dose injection in rats; assay type: in vivo, rat; conditions: for Average number of vacuoles / Average number of necrotic foci: males and females, all sections; for Average number of vacuoles / Number of animals with necrotic foci: dexanabinol 50 mg/kg i.v.; for Average number of vacuoles / Average number of necrotic foci / Number of animals with necrotic foci / Clinical signs post-dose: MK-801 5 mg/kg s.c.; for Average number of necrotic foci: dexanabinol 50 mg/kg i.v. in CREMOPHOR EL:ethanol; for Number of animals with necrotic foci: cingulated gyrus, males and females combined; for Clinical signs post-dose: study day 1, dexanabinol 50 mg/kg i.v. (undistinguishable from vehicle, transient)
Source text: The purpose of this study was to characterize the potential of dexanabinol to protect against neuronal vacuolization and cell death in the retrosplenial and cingulated neocortex regions of the brain in Sprague Dawley rats following intravenous administration of a single high dose of […]. It has previously been reported that neuronal vacuolization and cell death are among the commonly detected adverse side effects of NMDA antagonists in rodents (Olney J. W. et al., Science 244: 1360-2, 1989).
Sprague Dawley rats (140-250 g body weight, Charles River Laboratory, Mich., USA) were maintained under controlled environmental conditions, with 12:12 hour light dark cycle, and had free access to food and water. The animals were acclimated for at least seven days prior to study day 1. Animals were randomly assigned to the following treatment groups: saline (negative control), CREMOPHOR EL®:ethanol (70:30 w/w respectively supplemented with 0.5% w/v dl-α-tocopherol and 0.01% w/v edetic acid; vehicle) and 50 mg/kg dexanabinol. For all groups the volume dosage was 10 ml/kg and the treatments were administered via bolus intravenous injection into the lateral tail vein of animals. CREMOPHOR EL®:ethanol and dexanabinol 50 mg/ml were diluted 1:10 into saline prior to injection. M-801 at a dose of 5 mg/kg administered subcutaneously at a volume dosage of 5 ml/kg was used as positive control, its vehicle being saline.
Each treatment group consisted of six males and six females, which were at first analyzed separately to assess gender influence. Clinical observations, including observations for mortality or moribundity, were recorded pretest, once daily, and when a change was noted during the twice-daily observations. Body weights were recorded pretest and predose on study day 1. Six animals per sex per group per time point were submitted for necropsy at approximately 4 and 12 hours post-dose, and 1, 3, and 7 days post-dose. At the predetermined time points, the animals were humanely euthanized via intraperitoneal injection of 100 mg/kg sodium pentobarbital to achieve deep anesthesia.
Whole body perfusion were performed using heparinized saline for approximately one minute followed by 10% neutral buffered fornalin for approximately eight to ten minutes on all animals. The calvarium was removed, leaving the brain in the cranial cavity. The heads (with the brain in the cranial cavity) or brains (removed only after 24 hours left in situ in 10% neutral buffered formalin) were placed into 10% neutral buffered formalin until further process toward pathological analysis.
The brains from all animals at all time points were processed and evaluated as follows. The brains from the 4 and 12 hours time point animals were removed and sectioned using a rat brain trimming matrix to yield two coronal sections including the posterior cingulated gyrus (retrosplenial area of the brain). All sections were embedded in glycol methacrylate, sectioned at approximately 2 microns, and stained with hematoxylin and eosin. Brains from the 1, 3 and 7 days post-dose animals were removed and sectioned to yield three coronal sections spanning the brain from the posterior cingulate gyrus and extending rostral to the level of the basal nuclei. These sections were embedded in paraffin and sectioned twice at approximately 5-8 microns, with one section stained with hematoxylin and eosin and the other with Fluoro-Jade B, which selectively stains dying neuronal cells. The slides were microscopically evaluated in a blinded fashion. No statistical analyses were performed.

Sprague-Dawley male rats [2] = test: Cognitive impairment assessment following 4 VO, Morris water maze; assay type: in vivo, rat
Procedure: One week after CCA occlusion, the cognitive impairment was measured using a Morris water maze apparatus. The ability of the animals to perform in this test is predictive of their learning and memory capacity. A circular metal pool 150 cm in diameter and 74 cm in height was filled with water at 25° C. to a height of 54 cm. A platform 10 cm in diameter was placed 2 cm below the water surface. The pool was divided (virtually) into 4 equal surface areas identified by arbitrary north, south, east and west coordinates. The platform was located in the middle of the southwest quadrant 25 cm from the pool rim. The swim path was monitored by video camera connected to a computer (View Point, France). […] Animals that found the hidden platform were allowed to stay on it for 30 seconds.
Animals were tested in nine consecutive trials one week following the 4 VO and the learning capacity was measured as the amount of time spent by the animal swimming before finding the hidden platform. Each trial was performed for 1 minute and there were 5 minute intervals between the trials. One day later, eight days post-occlusion, the animals were tested again in order to assess their memory.
Three groups of at least 8 animals each were tested in this study: 1) sham operated animals; 2) operated animals treated 15 minutes before CCA occlusion with HPCD vehicle; 3) operated animals treated 15 minutes before CCA occlusion with 8 mg/kg dexanabinol, prepared and injected intravenously as previously described in example 2.
The average latency time in seconds elapsed until platform localization was calculated for each treatment group as an average of three consecutive trials. […] During the first six trials dexanabinol treated animals learned similarly to vehicle treated animals.

[3] = system: individuals suffering from severe traumatic brain injury; conditions: severe traumatic brain injury patients; not significant statistically; cited from earlier work

| Structure (SMILES) | Time to full recovery of neurological score to sham animals levels (Sprague-Dawley male rats [1]; 8 mg/kg i.v. 15 minutes before CCA occlusion) | Decrease in neurological score (Sprague-Dawley male rats [1]; 5 hours after occlusion, 8 mg/kg i.v. 15 minutes before CCA occlusion, maximal score 16 points) | Neurological score compared with sham operated group (Sprague-Dawley male rats [1]; 48 hours post-occlusion, 8 mg/kg i.v.) | Neurological outcome compared with vehicle treated or operated untreated animals (Sprague-Dawley male rats [1]; from 24 hours post-occlusion on, 8 mg/kg i.v.) | Average number of vacuoles (Sprague Dawley rats; 4 hrs post-dosing) | Average number of vacuoles (Sprague Dawley rats; 12 hrs post-dosing) | Average number of necrotic foci (Sprague Dawley rats; Day 1 post-dosing) | Average number of necrotic foci (Sprague Dawley rats; Day 3 post-dosing) | Average number of necrotic foci (Sprague Dawley rats; Day 7 post-dosing) | Number of animals with necrotic foci (Sprague Dawley rats; Day 1 post-dosing) | Number of animals with necrotic foci (Sprague Dawley rats; Day 3 post-dosing) | Number of animals with necrotic foci (Sprague Dawley rats; Day 7 post-dosing) | Highest tolerated dose in rats (Sprague Dawley rats; single dose, to the first approximation) | Clinical signs post-dose (Sprague Dawley rats) | Average time to localize the hidden platform (Sprague-Dawley male rats [2]; average over the ten trials measuring learning and memory, 8 mg/kg i.v., sham 34.8 seconds) | Time less than sham operated animals to localize the hidden platform (Sprague-Dawley male rats [2]; average over the ten trials, 8 mg/kg i.v., difference not statistically significant) | Reduction in average time for platform localization over vehicle treated animals (memory) (Sprague-Dawley male rats [2]; day 8 post-occlusion, 8 mg/kg i.v. 15 minutes before CCA occlusion) | Reduction in average time for platform localization over vehicle control group (learning) (Sprague-Dawley male rats [2]; last three of nine trials, one week after 4 VO, 8 mg/kg i.v. 15 minutes before CCA occlusion) | Neurological outcome as assessed by the Galveston Orientation and Amnesia Test [3] |
| --- | --- | --- | --- | --- | --- | --- | --- | --- | --- | --- | --- | --- | --- | --- | --- | --- | --- | --- | --- |
| CCCCCCC(C)(C)c1cc(O)c2c(c1)OC(C)(C)[C@H]1CC=C(CO)C[C@H]21 [Dexanabinol, 1,1-dimethyl-(3S,4S)-7-hydroxy-Δ^6-tetrahydrocannabinol] | ≤ 72 hours | about 4 points | not statistically different from the sham operated group | significantly better neurological outcome | None | None | 0.5 | 0.6 | >3 | 0/12 | 0/12 | 0/12 | ~50 mg/kg | prostration and decreased activity | 30.8 s | 4 s | ~22% | more than 42% | trend existed for the dexanabinol treated patients to achieve better neurological outcome |
| C[C@]12N[C@H](Cc3ccccc31)c1ccccc12 [MK-801, reference compound] |  |  |  |  |  |  |  |  |  |  |  |  |  | ataxia, tremors and prostration |  |  |  |  |  |
